Test results from US7189851B2, “Condensed heterocyclic compounds as calcitonin agonists” (SmithKline Beecham Corporation, priority 2002, dated 2007).

Biological target: T1, human calcitonin-2 receptor (hCT2R) (Homo sapiens, UniProt P30988)
T1 construct: expressed in transfected cells; host or cells: Chinese hamster ovary (CHO) cells co-transfected with a 6CRE-luciferase reporter; receptor cDNA cloned from the MCF7 cell line
T1 sequence (P30988 25-474): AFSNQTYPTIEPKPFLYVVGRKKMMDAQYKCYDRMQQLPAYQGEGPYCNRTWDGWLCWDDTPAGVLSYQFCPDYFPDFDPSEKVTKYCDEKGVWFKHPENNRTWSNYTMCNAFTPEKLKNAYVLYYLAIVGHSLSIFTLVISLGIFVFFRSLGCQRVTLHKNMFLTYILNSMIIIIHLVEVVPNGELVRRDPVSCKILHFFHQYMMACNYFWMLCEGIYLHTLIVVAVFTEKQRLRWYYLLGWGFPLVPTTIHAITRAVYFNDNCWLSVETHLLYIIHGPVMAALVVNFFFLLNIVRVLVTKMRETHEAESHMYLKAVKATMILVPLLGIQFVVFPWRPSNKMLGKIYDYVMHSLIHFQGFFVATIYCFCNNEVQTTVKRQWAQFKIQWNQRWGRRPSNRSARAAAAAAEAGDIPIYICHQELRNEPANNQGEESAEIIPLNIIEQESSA
Experiment: HCT2R CRE-luc reporter assay
Type: cell-based
Conditions: agonist activity; CHO-6CRE-luciferase cells co-transfected with hCT2R
Method: The compounds of the present invention elicit important and measurable pharmacological responses. As is to be expected, the efficacy of any compound will vary depending upon the particular assay and the particular compound tested.
All recombinant cell line human calcitonin receptor assays were carried out with the human receptor corresponding to GeneBank Accession Number X69920, [See: Molecular Pharmacology 46 (2):246–255, 1994, Cloning and characterization of an abundant subtype of the human calcitonin receptor] cloned from the MCF7 cell line (American Type Tissue Collection, Manassas, Va., USA, Catalog # HTB-22). Human calcitonin receptor (hCT2R) was cloned as a HindIII fragment into plasmid BS SKII. Chinese hamster ovary cells were co-transfected with a 6CRE-luciferase reporter system and hCTR2. HEK cells were transfected with hCTR2.
CHO-6CRE-luciferase cells with or without co-expressed hCTR2 were grown in suspension in commercially available cell culture medium supplemented with 2 mM L-glutamine and 5% fetal bovine serum (FBS). Sixteen hours before each assay, cells were collected and resuspended at 1,000,000 cells/ml in media without FBS. Cells were cultured in spinner flasks at 37° C. in an atmosphere of 5% CO2. At the time of the assay, cells were pelleted by centrifugation and resuspended in media without FBS at a concentration of 250,000 cells/ml. The cell suspension was pipetted into black 96-well microtiter plates (25,000 cells/well) containing test compounds. After a four-hour incubation at 37° C., media was aspirated, followed by addition of 50 microliters of LucLite and PBS (1:1) containing 1 mM CaCl2 and 1 mM MgCl2. The plates were sealed and incubated for 20 minutes in the dark. Luminescent responses were measured using a Packard TopCount.
Structure activity studies were performed on CHO-6CRE-luciferase cells with or without co-transfected hCT2R. Forty-eight hours before each assay, cells were removed with trypsin and plated in 96-well microtiter plates at a concentration of 25–100,000 cells/well. Sixteen hours before each assay, FBS-containing media was removed and replaced with media without FBS. Compounds were added and incubated for four hours at 37° C. After incubation, media was aspirated and 50 microliters of LucLite in PBS (1:1) containing 1 mM CaCl2 and 1 mM MgCl2 were added to each well. Plates were sealed and incubated for 20 minutes in the dark before quantification of luminescence on a Packard TopCount.
Concentration-response curves were calculated and potencies were reported as the concentration of compounds producing half-maximal responses (EC50) or the negative log of the concentration of compounds producing half-maximal responses (pEC50).

| Compound | EC50 [nM] |
| --- | --- |
| N#Cc1c(CCc2ccc(C(F)(F)F)cc2)nc2c(c1-c1ccc(C(=O)NCc3ccco3)cc1)C(=O)N1CCC[C@@H]21 [Example 28, 4-((9aS)-3-Cyano-5-oxo-2-{2-[4-(trifluoromethyl)phenyl]ethyl}-7,8,9,9a-tetrahydro-5H-pyrido[2,3-α]pyrrolizin-4-yl)-N-(2-furylmethyl)benzamide] | 100 to 1000 |
| CC(=O)c1c(CCc2ccc(F)cc2)nc2c(c1-c1ccc(C(=O)NCc3ccco3)cc1)C(=O)N1CCC[C@@H]21 [Example 29, 4-{(9aS)-3-acetyl-2-[2-(4-fluorophenyl)ethyl]-5-oxo-7,8,9,9a-tetrahydro-5H-pyrido[2,3-α]pyrrolizin-4-yl}-N-(2-furylmethyl)benzamide] | 10 to 100 |
| Cc1nc2c(c(-c3ccc(C(=O)NCc4ccco4)cc3)c1C(=O)CCc1ccc(F)cc1)C(=O)N1CCC[C@@H]21 [Example 30, 4-{(9aS)-3-[3-(4-fluorophenyl)propanoyl]-2-methyl-5-oxo-7,8,9,9a-tetrahydro-5H-pyrido[2,3-α]pyrrolizin-4-yl}-N-(2-furylmethyl)benzamide] | 100 to 1000 |
| O=C(NCc1ccco1)c1ccc(-c2c(C(=O)c3ccco3)c(CCc3ccc(F)cc3)nc3c2C(=O)N2CCC[C@@H]32)cc1 [Example 31, 4-[(9aS)-2-[2-(4-fluorophenyl)ethyl]-3-(2-furoyl)-5-oxo-7,8,9,9a-tetrahydro-5H-pyrido[2,3-α]pyrrolizin-4-yl]-N-(2-furylmethyl)benzamide] | ≤ 10 |
| O=C(N[C@@H]1CCc2ccccc21)c1ccc(-c2c3c(nc4c2C(=O)N2CCC[C@@H]42)CC(c2ccc(F)cc2)CC3=O)cc1 (stereo partly drawn) [Example 32, 4-[(3aS)-6-(4-Fluorophenyl)-8,10-dioxo-2,3,3a,5,6,7,8,10-octahydro-1H-pyrrolizino[1,2-b]quinolin-9-yl]-N-[(1R)-2,3-dihydro-1H-inden-1-yl]benzamide] | ≥ 1000 |
| CCOC(=O)c1c(CCc2ccc(C(F)(F)F)cc2)nc2c(c1-c1ccc(C(=O)NCc3ccco3)cc1)C(=O)N1CSC[C@@H]21 [Example 34, Ethyl (9aR)-4-(4-{[(2-furylmethyl)amino]carbonyl}phenyl)-5-oxo-2-{2-[4-(trifluoromethyl)phenyl]ethyl}-9,9a-dihydro-5H-[1,3]thiazolo[3′,4′:1,2]pyrrolo[3,4-b]pyridine-3-carboxylate] | ≤ 10 |
| CCOC(=O)c1c(CCc2ccc(C(F)(F)F)cc2)nc2c(c1-c1ccc(C(=O)NCc3ccco3)cc1)C(=O)N1CS(=O)(=O)C[C@@H]21 [Example 35, Ethyl (9aR)-4-(4-{[(2-furylmethyl)amino]carbonyl}phenyl)-5-oxo-2-{2-[4-(trifluoromethyl)phenyl]ethyl}-9,9a-dihydro-5H-[1,3]thiazolo[3′,4′:1,2]pyrrolo[3,4-b]pyridine-3-carboxylate 8,8-dioxide] | 10 to 100 |
| CCOC(=O)c1c(CCc2ccc(C(F)(F)F)cc2)nc2c(c1-c1ccc(CC(=O)NCc3ccco3)cc1)C(=O)N1CCC[C@@H]21 [Example 37, Ethyl (9aS)-4-(4-{2-[(2-furylmethyl)amino]-2-oxoethyl}phenyl)-5-oxo-2-{2-[4-(trifluoromethyl)phenyl]ethyl}-7,8,9,9a-tetrahydro-5H-pyrido[2,3-α]pyrrolizine-3-carboxylate] | 100 to 1000 |
| CCOC(=O)c1c(Cc2ccc(F)cc2)nc2c(c1-c1ccc(C(=O)NCc3ccco3)nn1)C(=O)N1CCCC21 (stereo not drawn) [Example 39, Ethyl 2-(4-fluorobenzyl)-4-(6-{[(2-furylmethyl)amino]carbonyl}-3-pyridazinyl)-5-oxo-7,8,9,9a-tetrahydro-5H-pyrido[2,3-α]pyrrolizine-3-carboxylate] | 10 to 100 |
| CCOC(=O)c1c(CCc2ccc(F)cc2)nc2c(c1-c1ccc(C)cc1)C(=O)N1CCC[C@@H]21 [Example 40, Ethyl (9aS)-2-[2-(4-fluorophenyl)ethyl]-4-(4-methylphenyl)-5-oxo-7,8,9,9a-tetrahydro-5H-pyrido[2,3-α]pyrrolizine-3-carboxylate] | 100 to 1000 |
| CCOC(=O)c1c(CCc2ccc(C(F)(F)F)cc2)nc2c(c1-c1ccc(C(=O)NCCCn3ccnc3)cc1)C(=O)N1CCC[C@@H]21 [Example 41, Ethyl (9aS)-4-[4-({[3-(1H-imidazol-1-yl)propyl]amino}carbonyl)phenyl]-5-oxo-2-{2-[4-(trifluoromethyl)phenyl]ethyl}-7,8,9,9a-tetrahydro-5H-pyrido[2,3-α]pyrrolizine-3-carboxylate] | 100 to 1000 |
| CCOC(=O)c1c(CCc2ccc(C(F)(F)F)cc2)nc2c(c1-c1ccc(C(=O)NCCc3cnc[nH]3)cc1)C(=O)N1CCC[C@@H]21 [Example 42, Ethyl (9aS)-4-[4-({[2-(1H-imidazol-5-yl)ethyl]amino}carbonyl)phenyl]-5-oxo-2-{2-[4-(trifluoromethyl)phenyl]ethyl}-7,8,9,9a-tetrahydro-5H-pyrido[2,3-α]pyrrolizine-3-carboxylate] | 100 to 1000 |
| CCOC(=O)c1c(CCCC(C)C)nc2c(c1-c1ccc(C(=O)N[C@@H]3CCc4ccccc43)cc1)C(=O)N1CCC[C@@H]21 [Example 43, Ethyl (9aS)-4-(4-{[(1R)-2,3-dihydro-1H-inden-1-ylamino]carbonyl}phenyl)-2-(4-methylpentyl)-5-oxo-7,8,9,9a-tetrahydro-5H-pyrido[2,3-α]pyrrolizine-3-carboxylate] | ≤ 10 |
| CCOC(=O)c1c(CCC(F)(F)F)nc2c(c1-c1ccc(C(=O)N[C@@H]3CCc4ccccc43)cc1)C(=O)N1CCC[C@@H]21 [Example 44, Ethyl (9aS)-4-(4-{[(1R)-2,3-dihydro-1H-inden-1-ylamino]carbonyl}phenyl)-5-oxo-2-(3,3,3-trifluoropropyl)-7,8,9,9a-tetrahydro-5H-pyrido[2,3-α]pyrrolizine-3-carboxylate] | 10 to 100 |
| CCOC(=O)c1c(Cc2ccc(F)cc2F)nc2c(c1-c1ccc(C(=O)NN3CCc4ccccc43)cc1)C(=O)N1CCC[C@@H]21 [Example 45, Ethyl (9aS)-2-(2,4-difluorobenzyl)-4-{4-[(2,3-dihydro-1H-indol-1-ylamino)carbonyl]phenyl}-5-oxo-7,8,9,9a-tetrahydro-5H-pyrido[2,3-α]pyrrolizine-3-carboxylate] | 10 to 100 |
| CCOC(=O)c1c(Cc2ccc(F)cc2)nc2c(c1-c1ccc(CNC(=O)c3ccccc3)s1)C(=O)N1CCC[C@@H]21 [Example 46, Ethyl (9aS)-4-{5-[(benzoylamino)methyl]-2-thienyl}-2-(4-fluorobenzyl)-5-oxo-7,8,9,9a-tetrahydro-5H-pyrido[2,3-α]pyrrolizine-3-carboxylate] | 100 to 1000 |
| CCOC(=O)c1c(CCc2ccc(C(F)(F)F)cc2)nc2c(c1-c1ccc(CNC(=O)c3cccnc3)s1)C(=O)N1CCC[C@@H]21 [Example 47, Ethyl (9aS)-5-oxo-4-(5-{[(3-pyridinylcarbonyl)amino]methyl}-2-thienyl)-2-{2-[4-(trifluoromethyl)phenyl]ethyl}-7,8,9,9a-tetrahydro-5H-pyrido[2,3-α]pyrrolizine-3-carboxylate] | 10 to 100 |
| CCOC(=O)c1c(CCc2ccc(F)cc2)cc2c(c1-c1ccc(C(=O)OCc3ccccc3)cc1)C(=O)N1CCC[C@@H]21 [Example 48, Ethyl (9bS)-6-{4-[(benzyloxy)carbonyl]phenyl}-8-[2-(4-fluorophenyl)ethyl]-5-oxo-2,3,5,9b-tetrahydro-1H-pyrrolo[2.1-a]isoindole-7-carboxylate] | ≥ 1000 |
| CCOC(=O)c1c(CCc2ccc(F)cc2)cc2c(c1-c1ccc(C(=O)O)cc1)C(=O)N1CCC[C@@H]21 [Example 49, 4-{(9bS)-7-(ethoxycarbonyl)-8-[2-(4-fluorophenyl)ethyl]-5-oxo-2,3,5,9b-tetrahydro-1H-pyrrolo[2,1-α]isoindol-6-yl}benzoic acid] | ≥ 1000 |
